The text below walks through data of US20240109917A1 (ACTELION PHARMACEUTICALS LTD, priority 2020, published 2024).

Each structure is given as a SMILES string. Where two headings read alike, the source gives them in different places.

Assay [1] addresses Tb-labeled inactive PDGFRβ (Homo sapiens (Human), UniProt P09619). As to the kind of experiment: PDGFRβ LanthaScreen Assay. Type of assay: binding. The conditions noted are these: read-out: PDGFR Lantha IC50.
A further assay has as its target PDGFRβ (Rattus norvegicus (Rat), UniProt Q05030). Nature of the assay: PDGFRβ Cellular Assay (PDGFRb P-Y751 HTRF in A10 cells stimulated with PDGF-BB). Type of assay: cell-based. In short, it runs like this:
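Rat A10 cells, plated overnight, were treated with compound for 3 hours, then stimulated with PDGF-BB (working stock 100 ng/mL in 10% FBS medium). After lysis, PDGFRβ P-Y751 was detected by HTRF.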
Background: TR-FRET usually uses a lanthanide donor and a delayed reading to cut background.

The target in the next assay is VEGFR2, unphosphorylated (Homo sapiens (Human), UniProt P35968). Nature of the assay: VEGFR ADP GLO Assay. Format: biochemical.
Chain of VEGFR2, unphosphorylated (P35968 20-1356): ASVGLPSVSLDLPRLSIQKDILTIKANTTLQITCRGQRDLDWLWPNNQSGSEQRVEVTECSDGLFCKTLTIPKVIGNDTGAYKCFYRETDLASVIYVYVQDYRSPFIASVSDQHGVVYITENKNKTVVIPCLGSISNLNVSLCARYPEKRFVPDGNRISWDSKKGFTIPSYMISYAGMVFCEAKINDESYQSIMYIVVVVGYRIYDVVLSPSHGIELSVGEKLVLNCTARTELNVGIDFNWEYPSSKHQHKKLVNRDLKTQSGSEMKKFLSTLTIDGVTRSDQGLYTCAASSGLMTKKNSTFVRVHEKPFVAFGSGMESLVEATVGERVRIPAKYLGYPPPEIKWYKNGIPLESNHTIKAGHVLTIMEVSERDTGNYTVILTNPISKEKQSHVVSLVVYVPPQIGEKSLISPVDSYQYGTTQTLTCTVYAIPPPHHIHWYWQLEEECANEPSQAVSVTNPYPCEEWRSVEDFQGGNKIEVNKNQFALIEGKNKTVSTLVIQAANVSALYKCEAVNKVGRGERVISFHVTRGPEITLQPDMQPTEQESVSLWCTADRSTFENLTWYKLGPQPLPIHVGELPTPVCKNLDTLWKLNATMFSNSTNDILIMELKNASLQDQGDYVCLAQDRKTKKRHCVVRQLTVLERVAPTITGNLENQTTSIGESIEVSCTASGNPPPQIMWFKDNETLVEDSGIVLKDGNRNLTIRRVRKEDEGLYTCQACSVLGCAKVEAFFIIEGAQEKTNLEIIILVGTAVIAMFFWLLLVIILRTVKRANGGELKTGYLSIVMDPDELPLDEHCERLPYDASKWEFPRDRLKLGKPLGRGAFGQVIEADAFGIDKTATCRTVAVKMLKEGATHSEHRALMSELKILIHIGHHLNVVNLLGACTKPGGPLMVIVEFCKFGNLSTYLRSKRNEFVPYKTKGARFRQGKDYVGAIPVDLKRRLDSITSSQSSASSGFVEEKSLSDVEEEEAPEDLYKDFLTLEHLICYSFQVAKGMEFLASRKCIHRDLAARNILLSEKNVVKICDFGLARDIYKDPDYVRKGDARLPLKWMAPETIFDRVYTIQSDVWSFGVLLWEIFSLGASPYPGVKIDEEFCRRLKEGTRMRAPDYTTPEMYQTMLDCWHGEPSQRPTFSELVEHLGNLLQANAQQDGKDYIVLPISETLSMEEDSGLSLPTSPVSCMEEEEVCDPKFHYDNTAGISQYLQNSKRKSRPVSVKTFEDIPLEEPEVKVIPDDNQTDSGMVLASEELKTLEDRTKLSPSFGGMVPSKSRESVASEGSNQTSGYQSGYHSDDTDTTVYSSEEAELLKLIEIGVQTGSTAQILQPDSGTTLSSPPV

Chain of Tb-labeled inactive PDGFRβ (P09619 33-1106): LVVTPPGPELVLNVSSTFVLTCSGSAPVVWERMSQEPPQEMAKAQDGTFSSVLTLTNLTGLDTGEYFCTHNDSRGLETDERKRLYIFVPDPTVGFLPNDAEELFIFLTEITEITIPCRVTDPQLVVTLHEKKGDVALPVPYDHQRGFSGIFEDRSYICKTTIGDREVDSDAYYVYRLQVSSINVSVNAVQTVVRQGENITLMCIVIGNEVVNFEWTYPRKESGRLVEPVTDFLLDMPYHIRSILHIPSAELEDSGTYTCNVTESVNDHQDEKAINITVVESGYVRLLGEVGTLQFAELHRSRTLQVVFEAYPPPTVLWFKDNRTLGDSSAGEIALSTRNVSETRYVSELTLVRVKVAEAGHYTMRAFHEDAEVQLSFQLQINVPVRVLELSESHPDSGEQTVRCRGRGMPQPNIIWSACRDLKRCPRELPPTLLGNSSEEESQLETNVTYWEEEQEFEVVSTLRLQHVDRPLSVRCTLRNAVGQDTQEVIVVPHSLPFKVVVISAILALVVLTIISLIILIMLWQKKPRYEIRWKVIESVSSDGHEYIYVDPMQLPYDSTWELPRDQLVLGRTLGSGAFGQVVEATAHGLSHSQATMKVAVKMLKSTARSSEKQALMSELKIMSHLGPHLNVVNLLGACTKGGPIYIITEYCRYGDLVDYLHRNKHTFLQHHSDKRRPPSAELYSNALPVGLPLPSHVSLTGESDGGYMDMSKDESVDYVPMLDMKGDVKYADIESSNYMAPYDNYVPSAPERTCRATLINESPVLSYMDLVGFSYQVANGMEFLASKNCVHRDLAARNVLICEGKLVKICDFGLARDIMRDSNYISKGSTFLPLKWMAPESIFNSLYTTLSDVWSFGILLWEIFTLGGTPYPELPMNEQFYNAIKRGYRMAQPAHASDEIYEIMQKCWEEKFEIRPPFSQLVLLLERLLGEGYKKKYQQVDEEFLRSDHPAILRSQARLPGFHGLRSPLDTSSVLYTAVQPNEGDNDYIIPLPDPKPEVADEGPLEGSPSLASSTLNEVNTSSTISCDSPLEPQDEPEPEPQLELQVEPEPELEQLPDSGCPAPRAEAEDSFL
Chain of PDGFRβ (Q05030 32-1097): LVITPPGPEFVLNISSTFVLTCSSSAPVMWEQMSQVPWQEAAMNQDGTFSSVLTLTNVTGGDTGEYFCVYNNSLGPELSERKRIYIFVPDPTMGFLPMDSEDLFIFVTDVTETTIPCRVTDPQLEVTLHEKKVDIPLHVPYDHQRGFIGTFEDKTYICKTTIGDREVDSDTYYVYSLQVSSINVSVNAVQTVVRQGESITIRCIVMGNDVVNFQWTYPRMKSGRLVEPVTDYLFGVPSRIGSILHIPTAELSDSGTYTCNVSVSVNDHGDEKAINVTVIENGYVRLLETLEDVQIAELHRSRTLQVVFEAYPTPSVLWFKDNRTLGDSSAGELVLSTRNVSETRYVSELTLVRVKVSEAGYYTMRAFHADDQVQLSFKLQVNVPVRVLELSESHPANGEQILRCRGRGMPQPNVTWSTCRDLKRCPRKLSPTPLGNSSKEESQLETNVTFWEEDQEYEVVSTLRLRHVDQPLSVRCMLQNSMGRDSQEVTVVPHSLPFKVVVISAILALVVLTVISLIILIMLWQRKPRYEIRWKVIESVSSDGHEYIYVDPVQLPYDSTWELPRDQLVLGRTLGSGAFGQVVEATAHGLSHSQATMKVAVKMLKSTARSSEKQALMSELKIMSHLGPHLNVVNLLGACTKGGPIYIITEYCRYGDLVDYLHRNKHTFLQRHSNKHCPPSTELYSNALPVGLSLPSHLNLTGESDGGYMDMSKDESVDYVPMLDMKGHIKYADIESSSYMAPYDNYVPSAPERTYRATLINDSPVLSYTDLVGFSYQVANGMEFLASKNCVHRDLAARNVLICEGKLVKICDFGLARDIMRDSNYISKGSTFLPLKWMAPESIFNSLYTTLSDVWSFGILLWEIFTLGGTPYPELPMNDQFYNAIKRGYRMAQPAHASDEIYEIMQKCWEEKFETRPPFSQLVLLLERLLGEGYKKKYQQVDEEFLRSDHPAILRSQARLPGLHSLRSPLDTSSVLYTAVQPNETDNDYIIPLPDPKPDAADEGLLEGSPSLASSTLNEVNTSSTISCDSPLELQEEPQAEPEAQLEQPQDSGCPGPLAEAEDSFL

One may read the IC50 as the concentration needed to halve the response being measured. With `Cc1ncc(NC(=O)CN2CC(C)(C)C2)cc1NC(=O)c1cnn2cc(-c3cnn(C4CCNCC4)c3)sc12` [Example 293, N-(5-(2-(3,3-dimethylazetidin-1-yl)acetamido)-2-methylpyridin-3-yl)-2-(1-(piperidin-4-yl)-1H-pyrazol-4-yl)pyrazolo[5,1-b]thiazole-7-carboxamide], the IC50 in assay [1] is 4.6 nM; on PDGFRβ (read-out: PDGFR Cellular IC50), 337 nM; on VEGFR2, unphosphorylated, more than 7500 nM.
The like results for `Cc1ncc(NC(=O)CN(C)C2CCOCC2)cc1NC(=O)c1cnn2cc(-c3cnn(C4CC4)c3)sc12` [Example 294, 2-(1-cyclopropyl-1H-pyrazol-4-yl)-N-(2-methyl-5-(2-(methyl(tetrahydro-2H-pyran-4-yl)amino)acetamido)pyridin-3-yl)pyrazolo[5,1-b]thiazole-7-carboxamide] were, in that order, 5.1 nM, 12.7 nM and more than 7500 nM.
The like results for `Cc1ncc(NC(=O)CN(C)C2CCOCC2)cc1NC(=O)c1cnn2cc(-c3cnn(C(F)F)c3)sc12` [Example 295, 2-(1-(difluoromethyl)-1H-pyrazol-4-yl)-N-(2-methyl-5-(2-(methyl(tetrahydro-2H-pyran-4-yl)amino)acetamido)pyridin-3-yl)pyrazolo[5,1-b]thiazole-7-carboxamide] were, in that order, 13.5 nM, 21.3 nM and more than 7500 nM.
With `Cc1ncc(NC(=O)CN(C)C2CCOCC2)cc1NC(=O)c1cnn2cc(-c3cnn(C4CCC4)c3)sc12` [Example 296, 2-(1-cyclobutyl-1H-pyrazol-4-yl)-N-(2-methyl-5-(2-(methyl(tetrahydro-2H-pyran-4-yl)amino)acetamido)pyridin-3-yl)pyrazolo[5,1-b]thiazole-7-carboxamide], the IC50 in assay [1] is 3.7 nM; on PDGFRβ (read-out: PDGFR Cellular IC50), 7.6 nM; on VEGFR2, unphosphorylated it was more than 7500 nM.
The like results for `Cc1ncc(NC(=O)CN(C)C2CCOCC2)cc1NC(=O)c1cnn2cc(-c3cnn(C(C)C#N)c3)sc12` (stereo not drawn) [Example 297, 2-(1-(1-cyanoethyl)-1H-pyrazol-4-yl)-N-(2-methyl-5-(2-(methyl(tetrahydro-2H-pyran-4-yl)amino)acetamido)pyridin-3-yl)pyrazolo[5,1-b]thiazole-7-carboxamide] were, in that order, 8.6 nM, 98 nM and more than 7500 nM.
On to `Cc1ncc(NC(=O)CN(C)C2CCOCC2)cc1NC(=O)c1cnn2cc(-c3cnn(CS(C)(=O)=O)c3)sc12` [Example 298, N-(2-methyl-5-(2-(methyl(tetrahydro-2H-pyran-4-yl)amino)acetamido)pyridin-3-yl)-2-(1-((methylsulfonyl)methyl)-1H-pyrazol-4-yl)pyrazolo[5,1-b]thiazole-7-carboxamide], for which the IC50 is 6.4 nM in assay [1]; 236 nM against PDGFRβ (PDGFR Cellular IC50); more than 7500 nM against VEGFR2, unphosphorylated.
Consider `Cc1ncc(NC(=O)CN(C)C2CCOCC2)cc1NC(=O)c1cnn2cc(-c3cnn(CC#N)c3)sc12` [Example 299, 2-(1-(cyanomethyl)-1H-pyrazol-4-yl)-N-(2-methyl-5-(2-(methyl(tetrahydro-2H-pyran-4-yl)amino)acetamido)pyridin-3-yl)pyrazolo[5,1-b]thiazole-7-carboxamide], for which the half-maximal inhibitory concentration (IC50) in assay [1] is 6 nM; on PDGFRβ (read-out: PDGFR Cellular IC50), 102 nM; at VEGFR2, unphosphorylated it was more than 7500 nM.
The like results for `Cc1ncc(NC(=O)CN(C)C2CCOCC2)cc1NC(=O)c1cnn2cc(-c3cnn(CC(N)=O)c3)sc12` [Example 300, 2-(1-(2-amino-2-oxoethyl)-1H-pyrazol-4-yl)-N-(2-methyl-5-(2-(methyl(tetrahydro-2H-pyran-4-yl)amino)acetamido)pyridin-3-yl)pyrazolo[5,1-b]thiazole-7-carboxamide] were, in that order, 12.4 nM, 1010 nM and more than 7500 nM.
The like results for `COc1ncccc1-c1cn2ncc(C(=O)Nc3cc(C(=O)NCCN4CCC[C@@H]4C)cnc3C)c2s1` [Example 301, (S)-2-(2-methoxypyridin-3-yl)-N-(2-methyl-5-((2-(2-methylpyrrolidin-1-yl)ethyl)carbamoyl)pyridin-3-yl)pyrazolo[5,1-b]thiazole-7-carboxamide] were, in that order, 1.4 nM, 4.3 nM and more than 7500 nM.
Take `Cc1ncc(NC(=O)CC23CCCN2CCC3)cc1NC(=O)c1cnn2cc(-c3cnn(C)c3)sc12` [Example 302, 2-(1-methyl-1H-pyrazol-4-yl)-N-(2-methyl-5-(2-(tetrahydro-1H-pyrrolizin-7a(5H)-yl)acetamido)pyridin-3-yl)pyrazolo[5,1-b]thiazole-7-carboxamide]: the half-maximal inhibitory concentration (IC50) is 61.2 nM in assay [1]; 7 nM at PDGFRβ (read-out: PDGFR Cellular IC50); more than 7500 nM against VEGFR2, unphosphorylated.
The like results for `Cc1ncc(NC(=O)CN2CCCC(O)C2)cc1NC(=O)c1cnn2cc(-c3cnn(C)c3)sc12` (stereo not drawn) [Example 303, N-(5-(2-(3-hydroxypiperidin-1-yl)acetamido)-2-methylpyridin-3-yl)-2-(1-methyl-1H-pyrazol-4-yl)pyrazolo[5,1-b]thiazole-7-carboxamide] were, in that order, 5.8 nM, 121 nM and more than 7500 nM.
The like results for `Cc1ncc(NC(=O)[C@@H]2C[C@@H](C)CN2C)cc1NC(=O)c1cnn2cc(-c3cnn(C)c3)sc12` [Example 304, N-(5-((2S,4R)-1,4-dimethylpyrrolidine-2-carboxamido)-2-methylpyridin-3-yl)-2-(1-methyl-1H-pyrazol-4-yl)pyrazolo[5,1-b]thiazole-7-carboxamide] were, in that order, 5.6 nM, 9.3 nM and more than 7500 nM.
The like results for `Cc1ncc(NC(=O)C[C@@H]2CCCCN2C(C)C)cc1NC(=O)c1cnn2cc(-c3cnn(C)c3)sc12` [Example 305, (S)—N-(5-(2-(1-isopropylpiperidin-2-yl)acetamido)-2-methylpyridin-3-yl)-2-(1-methyl-1H-pyrazol-4-yl)pyrazolo[5,1-b]thiazole-7-carboxamide] were, in that order, 57.8 nM, 308 nM and more than 7500 nM.
Regarding `Cc1ncc(NC(=O)C(C)N2CCCCCC2)cc1NC(=O)c1cnn2cc(-c3cnn(C)c3)sc12` (stereo not drawn) [Example 306, N-(5-(2-(azepan-1-yl)propanamido)-2-methylpyridin-3-yl)-2-(1-methyl-1H-pyrazol-4-yl)pyrazolo[5,1-b]thiazole-7-carboxamide], the IC50 was 9 nM in assay [1]; 4.8 nM on PDGFRβ (read-out: PDGFR Cellular IC50); more than 7500 nM against VEGFR2, unphosphorylated.
The like results for `Cc1ncc(NC(=O)CC(C)N2CCCCC2)cc1NC(=O)c1cnn2cc(-c3cnn(C)c3)sc12` (stereo not drawn) [Example 307, 2-(1-methyl-1H-pyrazol-4-yl)-N-(2-methyl-5-(3-(piperidin-1-yl)butanamido)pyridin-3-yl)pyrazolo[5,1-b]thiazole-7-carboxamide] were, in that order, 210 nM, 73.2 nM and more than 7500 nM.
The like results for `Cc1ncc(NC(=O)[C@@H]2CCCN3CCCC[C@H]23)cc1NC(=O)c1cnn2cc(-c3cnn(C)c3)sc12` [Example 308, 2-(1-methyl-1H-pyrazol-4-yl)-N-(2-methyl-5-((1R,9aR)-octahydro-2H-quinolizine-1-carboxamido)pyridin-3-yl)pyrazolo[5,1-b]thiazole-7-carboxamide] were, in that order, 710 nM, 311 nM and more than 7500 nM.
The like results for `COc1ncccc1-c1cn2ncc(C(=O)Nc3cc(NC(=O)C[C@H]4CCCN4C(C)C)cnc3C)c2s1` [Example 309, (R)—N-(5-(2-(1-isopropylpyrrolidin-2-yl)acetamido)-2-methylpyridin-3-yl)-2-(2-methoxypyridin-3-yl)pyrazolo[5,1-b]thiazole-7-carboxamide] were, in that order, 1.5 nM, 4.2 nM and more than 7500 nM.
As for `COc1ncccc1-c1cn2ncc(C(=O)Nc3cc(NC(=O)CN4CCOCC45CCC5)cnc3C)c2s1` [Example 310, N-(5-(2-(8-oxa-5-azaspiro[3.5]nonan-5-yl)acetamido)-2-methylpyridin-3-yl)-2-(2-methoxypyridin-3-yl)pyrazolo[5,1-b]thiazole-7-carboxamide], the IC50 was 1.4 nM in assay [1]; 3.3 nM at PDGFRβ (read-out: PDGFR Cellular IC50); more than 7500 nM on VEGFR2, unphosphorylated.
The like results for `CC[C@H]1CN(CC(=O)Nc2cnc(C)c(NC(=O)c3cnn4cc(-c5cccnc5OC)sc34)c2)CCO1` [Example 311, (S)—N-(5-(2-(2-ethylmorpholino)acetamido)-2-methylpyridin-3-yl)-2-(2-methoxypyridin-3-yl)pyrazolo[5,1-b]thiazole-7-carboxamide] were, in that order, 1.3 nM, 2.4 nM and more than 7500 nM.
The like results for `Cc1ncc(NC(=O)CN2CCCC2)cc1NC(=O)c1cnn2cc(-c3cccnc3O)sc12` [Example 312, 2-(2-hydroxypyridin-3-yl)-N-(2-methyl-5-(2-(pyrrolidin-1-yl)acetamido)pyridin-3-yl)pyrazolo[5,1-b]thiazole-7-carboxamide] were, in that order, 39.2 nM, 948 nM and more than 7500 nM.
The like results for `COc1ncccc1-c1cn2ncc(C(=O)Nc3cc(NC(=O)CN4CCCC4)cnc3C)c2s1` [Example 313, 2-(2-methoxypyridin-3-yl)-N-(2-methyl-5-(2-(pyrrolidin-1-yl)acetamido)pyridin-3-yl)pyrazolo[5,1-b]thiazole-7-carboxamide] were, in that order, 2.6 nM, 2.8 nM and more than 7500 nM.
`Cc1ncc(NC(=O)C2CCCCN2C(C)C)cc1NC(=O)c1cnn2cc(-c3cccnc3O)sc12` (stereo not drawn) [Example 314, 2-(2-hydroxypyridin-3-yl)-N-(5-(1-isopropylpiperidine-2-carboxamido)-2-methylpyridin-3-yl)pyrazolo[5,1-b]thiazole-7-carboxamide]: the IC50 in assay [1] was 64.4 nM; at PDGFRβ (read-out: PDGFR Cellular IC50), 548 nM; at VEGFR2, unphosphorylated, more than 7500 nM.
